Laboratory results: patent publication US20040054009A1, “(BIS)sulfonamide derivatives” (priority 2002, published 2004)

Tests used:
human GluR4B receptor = target: T1, human GluR4B receptor (Homo sapiens, UniProt P48058); assay: potentiation of agonist-induced excitability, HEK cells expressing human GluR4B (Fluo3-AM fluorescence, glutamate); assay type: cell-based; conditions: human GluR4B receptor expressed in HEK 293 cells
T1 construct: expressed in transfected cells
Procedure: 96 well plates containing confluent monolayers of HEK cells stably expressing human GluR^4B (obtained as described in European Patent Application Publication Number EP-A1-583917) were prepared. The tissue culture medium in the wells was then discarded, and the wells were each washed once with 200 μl of 5NaCa buffer (glucose, 10 mM, sodium chloride, 138 mM, magnesium chloride, 1 mM, potassium chloride, 5 mM, calcium chloride, 5 mM, N-[2-hydroxyethyl]-piperazine-N-[2-ethanesulfonic acid], 10 mM, to pH 7.1 to 7.3). The plates were then incubated for 60 minutes in the dark with 20 μM Fluo3-AM dye (obtained from Molecular Probes Inc, Eugene, Oreg.) in 5 NaCa buffer in each well. After the incubation, each well was washed once with 100 μl 5NaCa buffer, 200 μl of 5NaCa buffer was added and the plates were incubated for 30 minutes. […]
Each test was then performed as follows. […] A first reading was then taken using a FLUOROSKAN II fluorimeter (Obtained from Labsystems, Needham Heights, Mass., USA, a Division of Life Sciences International Plc). […] A second reading was then taken using the fluorimeter. The plate was then left in the fluorimeter for 5 minutes, and a third reading was taken. 15 μl of 400 μM glutamate solution was then added to each well (final glutamate concentration 100 μM), and a fourth reading was taken immediately. Approximately three minutes later, a fifth reading was taken. […]

human GluR4 = human GluR4 (Homo sapiens, UniProt P48058); assay: whole cell voltage clamp electrophysiological characterization of AMPA receptor potentiators (response to 100 μM glutamate); assay type: cell-based; conditions: HEK293 cells stably expressing human GluR4, voltage-clamped at −60 mV, Hill equation fit
Description: In another test, HEK293 cells stably expressing human GluR^4 (obtained as described in European Patent Application Publication No. EP-A1-0583917) were used in the electro-physiological characterization of AMPA receptor potentiators. The extracellular recording solution contained (in mM): 140 NaCl, 5 KCl, 10 HEPES, 1 MgCl2, 2 CaCl2, 10 glucose, pH=7.4 with NaOH, 295 mOsm kg^−1. The intracellular recording solution contained (in mM): 140 CsCl, 1 MgCl2, 10 HEPES, (N-[2-hydroxyethyl]piperazine-N^1-[2-ethanesulfonic acid]) 10 EGTA (ethylene-bis(oxyethylene-nitrilo)tetraacetic acid), pH=7.2 with CsOH, 295 mOsm kg^−1. […] Once stable baseline responses to this agonist challenge were obtained, the potentiator was introduced in the extracellular solution bathing the cells at the lowest concentration, and the response to 100 μM glutamate in the presence of this concentration of potentiator was determined.
The concentration of the potentiator, both in the bathing solution and co-applied with the agonist, was increased in half log units until the maximum potentiation was seen. […] Once the control responses to the agonist challenge were re-established, the potentiation of these responses by 100 μM cyclothiazide was determined by its inclusion in both the bathing solution and the agonist-containing solution. […]

Chain of human GluR4 (P48058 21-902): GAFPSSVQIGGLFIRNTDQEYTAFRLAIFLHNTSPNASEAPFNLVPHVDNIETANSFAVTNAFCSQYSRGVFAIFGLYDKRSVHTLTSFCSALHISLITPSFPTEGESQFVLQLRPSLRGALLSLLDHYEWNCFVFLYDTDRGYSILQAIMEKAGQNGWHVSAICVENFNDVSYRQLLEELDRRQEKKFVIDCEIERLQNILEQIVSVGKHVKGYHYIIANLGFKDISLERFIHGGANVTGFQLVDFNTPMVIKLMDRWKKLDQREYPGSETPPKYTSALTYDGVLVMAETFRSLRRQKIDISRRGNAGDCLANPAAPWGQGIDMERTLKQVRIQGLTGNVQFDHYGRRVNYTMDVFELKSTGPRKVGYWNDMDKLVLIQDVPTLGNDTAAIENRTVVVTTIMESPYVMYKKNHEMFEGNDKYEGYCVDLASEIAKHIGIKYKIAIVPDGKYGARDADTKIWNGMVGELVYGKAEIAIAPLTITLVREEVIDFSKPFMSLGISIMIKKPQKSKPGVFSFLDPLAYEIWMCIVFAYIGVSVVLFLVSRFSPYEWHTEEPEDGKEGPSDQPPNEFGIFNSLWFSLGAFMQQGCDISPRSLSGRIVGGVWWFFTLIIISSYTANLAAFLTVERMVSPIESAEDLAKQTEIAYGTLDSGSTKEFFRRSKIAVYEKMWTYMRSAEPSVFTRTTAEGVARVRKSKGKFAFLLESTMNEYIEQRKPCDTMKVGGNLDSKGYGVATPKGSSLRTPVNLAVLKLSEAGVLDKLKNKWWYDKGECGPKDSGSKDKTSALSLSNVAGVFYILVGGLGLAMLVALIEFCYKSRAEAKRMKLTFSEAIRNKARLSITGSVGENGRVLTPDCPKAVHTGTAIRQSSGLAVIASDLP
T1 sequence (P48058 21-902): as above

melting point [°C]	SMILES	also measured
87 to 89.5	CC(C)S(=O)(=O)NCC1(c2ccc(C(C)(C)C)cc2)CC1 [Example 25, N-1-(4-t-butylphenyl)cyclopropylmethyl 2-propanesulfonamide]	–
–	NS(=O)(=O)c1cc2c(cc1Cl)NC(C1CC3C=CC1C3)NS2(=O)=O (stereo not shown) [cyclothiazide]	potentiation of agonist-induced excitability of human GluR4B receptor (human GluR4B receptor): potentiate agonist-induced excitability
–	CC(CNS(=O)(=O)C(C)C)c1ccc(-c2ccsc2)cc1 (stereo not shown) [Example 28]	EC50 (human GluR4): 230 ± 59 nM
82 to 84	CC(C)(C)c1ccc(C2(CNS(=O)(=O)C(F)(F)F)CC2)cc1 [Example 24, N−1-(4-t-butylphenyl)cyclopropylmethyl Trifluoromethanesulfonamide]	–
